In the experiment the target is Glycogen synthase kinase-3 beta (Homo sapiens, UniProt P49841). In words: Kinase Assay: The effect of test compounds on the activity of the protein kinases GSK-3β, VEGFR-2 and FLT-3 was evaluated based on half maximal inhibitory concentration (IC50) values determined by Millipore UK Ltd; Gemini Crescent; Dundee Technology Park; Dundee DD2 1SW; UK (IC50Profiler). Detailed protocols can be found at: www.millipore.com/drugdiscovery/dd3/assayprotocols.

Each structure is given as a SMILES string.

Chain of Glycogen synthase kinase-3 beta (P49841 whole entry): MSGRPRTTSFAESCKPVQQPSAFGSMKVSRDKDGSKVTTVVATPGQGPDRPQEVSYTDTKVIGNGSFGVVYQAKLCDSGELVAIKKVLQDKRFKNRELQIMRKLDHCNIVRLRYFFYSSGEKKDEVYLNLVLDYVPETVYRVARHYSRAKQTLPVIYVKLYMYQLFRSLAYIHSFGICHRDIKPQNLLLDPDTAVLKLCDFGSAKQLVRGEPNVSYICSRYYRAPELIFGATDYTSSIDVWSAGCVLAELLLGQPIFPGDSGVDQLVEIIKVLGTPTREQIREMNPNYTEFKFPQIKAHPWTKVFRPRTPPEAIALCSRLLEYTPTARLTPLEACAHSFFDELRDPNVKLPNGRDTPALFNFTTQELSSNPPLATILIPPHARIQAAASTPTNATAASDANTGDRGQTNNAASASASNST

With `COc1cc(C2=C(c3cn(CCCO)c4ccccc34)C(=O)NC2=O)cc(OC)c1OC`, the IC50 – broadly, the concentration that inhibits the measured activity by half – amounted to 3.39 µM. This counts as single-digit micromolar.

Values taken from ChEMBL document CHEMBL3638506, “Conjugated 3-(indolyl)- and 3-(azaindolyl)-4-arylmaleimide compounds and their use in tumor treatment” (2015).
